Measured values published in patent publication US6900239B2, “Tumor chemopotentiation using isocoumarin derivatives” (ILWZ ILEX Products, Inc., priority 2000, dated 2005).

Test system: Ehrlich carcinoma
Test: Ehrlich solid tumor growth
Assay type: in vivo, ICR mice
Settings: for Inhibition (%): days 1~14; for Mean Tumor Weight (mg ± S.D.): days 1~14, measured day 15
Experimental: To determine the antitumor effect of NM-3 on growth of a solid tumor in vivo, 4×10^6 Ehrlich carcinoma cells per mouse were subcutaneously transplanted into ICR mice (female, 6 weeks old) in the inguinal area. NM-3 was continuously administered via the oral route for 14 days. Tumor weights were then measured on day 15 (Table 2). […] Thus, NM-3 treatment is associated with a significant reduction in the growth of solid tumors.

COc1cc(O)c2c(=O)oc(C(C)C(=O)O)cc2c1 (centres unmarked) [NM-3, 2-(8-hydroxy-6-methoxy-1-oxo-1H-2-benzopyran-3-yl) propionic acid]
Inhibition (%) (0.63 mg/kg p.o.): 33.1%
Inhibition (%) (1.25 mg/kg p.o.): 59.5%
Mean Tumor Weight (mg ± S.D.) (1.25 mg/kg p.o.): 497.7 ± 265.5 mg
Inhibition (%) (2.5 mg/kg p.o.): 57.7%
Mean Tumor Weight (mg ± S.D.) (2.5 mg/kg p.o.): 519.5 ± 319.3 mg
Inhibition (%) (5 mg/kg p.o.): 52.0%
Mean Tumor Weight (mg ± S.D.) (5 mg/kg p.o.): 589.7 ± 338.3 mg
Tumor size versus control (1.25 to 5 mg/kg p.o.): significantly reduced in size
